In patent US20230203044A1, “PYRAZOLO[1,5-D][1,2,4]TRIAZINE-5(4H)-ACETAMIDES AS INHIBITORS OF THE NLRP3 INFLAMMASOME” (JANSSEN PHARMACEUTICA NV, priority 2020, published 2023):

Tests used:
[1] = system: TNF; test: PBMC assay: TNF cytokine levels in LPS-stimulated human PBMCs (MSD); assay type: cell-based; details: 100 ng/ml LPS for 6 hrs, TNF in supernatant via MSD
Method: (§1) Peripheral venous blood was collected from healthy individuals and human peripheral blood mononuclear cells (PBMCs) were isolated from blood by Ficoll-Histopaque (Sigma-Aldrich, A0561) density gradient centrifugation. After isolation, PBMCs were stored in liquid nitrogen for later use. Upon thawing, PBMC cell viability was determined in growth medium (RPMI media supplemented with 10% fetal bovine serum, 1% Pen-Strep and 1% L-glutamine). Compounds were spotted in a 1:3 serial dilution in DMSO and diluted to the final concentration in 30 μl medium in 96 well plates (Falcon, 353072). PBMCs were added at a density of 7.5×10^4 cells per well and incubated for 30 min in a 5% CO2 incubator at 37° C. LPS stimulation was performed by addition of 100 ng/ml LPS (final concentration, Invivogen, tlrl-smlps) for 6 hrs followed by collection of cellular supernatant and the analysis of IL-1β (μM) and TNF cytokines levels (μM) via MSD technology according to manufacturers' guidelines (MSD, K151A0H).
The IC50 values (for IL-1β) and EC50 values (TNF) were obtained on compounds of the invention/examples, and are depicted in the following table: […]

[2] = system: NLRP3 inflammasome; test: PBMC assay: IL-1β in LPS-stimulated human PBMCs (MSD); assay type: cell-based; details: human PBMCs, 100 ng/ml LPS for 6 hrs, IL-1β in supernatant via MSD, read-out: IL1β IC50
Method: The activity of a compound according to the present invention can be assessed by in vitro methods.
as §1, with “Compounds were spotted in a 1:3 serial dilution in DMSO and diluted to the final concentration in 30 μl medium in 96 well plates (Falcon, 353072).” left out

SMILES	EC50 [1]	IC50 [2]
CC(C)c1nn(CC(=O)Nc2ccncc2F)c(=O)c2cc(C3CC3)nn12 [Final Cpd 96]	> 10 µM	0.24 µM
Cc1nn(CC(=O)N[C@]2(Cc3ccccc3)C[C@H](O)C2)c(=O)c2cc(C3CC3)nn12 [Final Cpd 50]	> 10 µM	> 10 µM
CC(C)c1nn(CC(=O)Nc2ccc3nncn3c2)c(=O)c2c(F)c(C3CC3)nn12 [Final Cpd 44]	> 10 µM	0.62 µM
Cc1nn(CC(=O)N[C@H]2C[C@@H](OCc3ccccc3Cl)C2)c(=O)c2cc(C3CC3)nn12 [Final Cpd 53]	> 10 µM	> 10 µM
CC(C)c1cc2c(=O)n(CC(=O)Nc3ccncn3)nc(C(C)O)n2n1 (stereo not shown) [Final Cpd 156]	> 10 µM	1.96 µM
CC(C)c1nn(CC(=O)Nc2ccc3nncn3c2)c(=O)c2cc(C3CC3)nn12 [Final Cpd 80]	> 10 µM	0.08 µM
CC(C)c1nn(CC(=O)NC2CCC(=O)N(CC3CC3)C2)c(=O)c2cc(C3CC3)nn12 (stereo not shown) [Final Cpd 25]	> 10 µM	2.34 µM
CC(C)c1nn(CC(=O)N[C@H]2CN(C(=O)OC(C)(C)C)CC[C@H]2O)c(=O)c2cc(C3CC3)nn12 [Final Cpd 34]	> 10 µM	5.66 µM
CC(C)c1nn(CC(=O)Nc2ccncn2)c(=O)c2cc(C(C)(C)C)nn12 [Final Cpd 70]	> 10 µM	0.62 µM
CCc1nn(CC(=O)Nc2ccncn2)c(=O)c2cc(C(C)C)nn12 [Final Cpd 16]	> 10 µM	0.84 µM
CCc1nn(CC(=O)Nc2ccc3nncn3c2)c(=O)c2cc(I)nn12 [Final Cpd 6]	> 10 µM	0.23 µM
CC(C)c1nn(CC(=O)Nc2cnccc2Cl)c(=O)c2cc(C3CC3)nn12 [Final Cpd 135]	> 10 µM	6.93 µM
Cc1ccncc1NC(=O)Cn1nc(C(C)C)n2nc(C3CC3)cc2c1=O [Final Cpd 138]	> 10 µM	> 10 µM
Cc1cc(NC(=O)Cn2nc(C(C)C)n3nc(C4CC4)cc3c2=O)c(C)cn1 [Final Cpd 104]	> 10 µM	1.62 µM
CC(C)c1nn(CC(=O)Nc2ccn3ncnc3c2)c(=O)c2cc(C3CC3)nn12 [Final Cpd 103]	> 10 µM	0.56 µM
C=CC(C)c1nn(CC(=O)N[C@H]2C[C@@](C)(O)C2)c(=O)c2cc(C3CC3)nn12 (stereo partly shown) [Final Cpd 200]	> 10 µM	> 10 µM
Cc1nn(CC(=O)N[C@H]2C[C@H](N(C)Cc3ccccc3)C2)c(=O)c2cc(C3CC3)nn12 [Final Cpd 52]	> 10 µM	2.31 µM
CC(C)c1cc2c(=O)n(CC(=O)N[C@H]3C[C@@](C)(O)C3)nc(N(C)C)n2n1 [Final Cpd 150]	> 10 µM	0.36 µM
Cc1nn(CC(=O)N[C@@H]2COC[C@@H]2CC(C)C)c(=O)c2cc(C3CC3)nn12 [Final Cpd 55]	> 10 µM	> 10 µM
COc1c(NC(=O)Cn2nc(C(C)C)n3nc(C4CC4)cc3c2=O)ccnc1C [Final Cpd 102]	> 10 µM	0.52 µM
CCc1nn(CC(=O)Nc2ccccc2OC)c(=O)c2ccnn12 [Final Cpd 77]	> 10 µM	> 10 µM
CC(C)c1nn(CC(=O)Nc2ccc3nc(C(F)(F)F)cn3c2)c(=O)c2cc(C3CC3)nn12 [Final Cpd 167]	> 10 µM	0.38 µM
COc1ncccc1NC(=O)Cn1nc(C(C)C)n2nc(C3CC3)cc2c1=O [Final Cpd 106]	> 10 µM	0.71 µM
Cc1nn(CC(=O)NC23CCCC2C2CCCC23)c(=O)c2cc(C3CC3)nn12 (stereo not shown) [Final Cpd 67]	> 10 µM	> 10 µM
CC(C)c1nn(CC(=O)Nc2ccc3nncn3n2)c(=O)c2cc(C3CC3)nn12 [Final Cpd 166, N-([1,2,4]triazolo[4,3-b]pyridazin-6-yl)-2-(2-cyclopropyl-7-isopropyl-4-oxopyrazolo[1,5-d][1,2,4]triazin-5(4H)-yl)acetamide]	> 10 µM	0.044 µM
CCCCc1nn(CC(=O)N[C@H]2C[C@@](C)(O)C2)c(=O)c2cc(C3CC3)nn12 [Final Cpd 196]	> 10 µM	> 10 µM

The remaining lines, values ahead:

EC50 [1]	IC50 [2]	SMILES
> 10 µM	9.37 µM	COc1ccncc1NC(=O)Cn1nc(C(C)C)n2nc(C3CC3)cc2c1=O [Final Cpd 125]
> 10 µM	8.11 µM	CCc1nn(CC(=O)Nc2ccncn2)c(=O)c2cc(C)nn12 [Final Cpd 14]
> 10 µM	0.51 µM	CCCc1cc2c(=O)n(CC(=O)Nc3ccnnc3)nc(C(C)C)n2n1 [Final Cpd 145]
> 10 µM	1.79 µM	CC(C)c1nn(CC(=O)NC2CCC(=O)N(C)C2)c(=O)c2cc(C3CC3)nn12 (stereo not shown) [Final Cpd 29]
> 10 µM	> 10 µM	COCCCc1nn(CC(=O)N[C@H]2C[C@@](C)(O)C2)c(=O)c2cc(C3CC3)nn12 [Final Cpd 194, 2-(2-cyclopropyl-7-(3-methoxypropyl)-4-oxopyrazolo[1,5-d][1,2,4]triazin-5(4H)-yl)-N-((ls,3s)-3-hydroxy-3-methylcyclobutyl)acetamide]
> 10 µM	0.11 µM	CC(C)c1nn(CC(=O)N[C@H]2C[C@@](C)(O)C2)c(=O)c2cc(C(C)(F)F)nn12 [Final Cpd 161]
> 10 µM	0.92 µM	CC(C)c1nn(CC(=O)Nc2ccc3nnc(C(F)F)n3c2)c(=O)c2cc(C3CC3)nn12 [Final Cpd 92]
> 10 µM	0.69 µM	CC(C)c1nn(CC(=O)N[C@H]2CCC(=O)N(C)C2)c(=O)c2cc(C3CC3)nn12 [Final Cpd 31]
> 10 µM	> 10 µM	CC(C)c1nn(CC(=O)Nc2ccncn2)c(=O)c2cc(N)nn12 [Final Cpd 186, 2-(2-amino-7-isopropyl-4-oxopyrazolo[1,5-d][1,2,4]triazin-5(4H)-yl)-N-(pyrimidin-4-yl)acetamide]
> 10 µM	0.84 µM	CC(C)c1nn(CC(=O)Nc2ccc3nnc(C(F)(F)F)n3n2)c(=O)c2cc(C3CC3)nn12 [Final Cpd 168]
> 10 µM	0.8 µM	CC(C)c1nn(CC(=O)N[C@@H]2CCCNC2)c(=O)c2cc(C3CC3)nn12 [Final Cpd 187, (R)-2-(2-cyclopropyl-7-isopropyl-4-oxopyrazolo[1,5-d][1,2,4]triazin-5(4H)-yl)-N-(piperidin-3-yl)acetamide]
> 10 µM	4.19 µM	Cc1nn(CC(=O)NC2CCCC2O)c(=O)c2cc(C3CC3)nn12 (stereo not shown) [Final Cpd 65]
> 10 µM	5.04 µM	CC(=O)c1cc2c(=O)n(CC(=O)Nc3ccncn3)nc(C(C)C)n2n1 [Final Cpd 183, 2-(2-acetyl-7-isopropyl-4-oxopyrazolo[1,5-d][1,2,4]triazin-5(4H)-yl)-N-(pyrimidin-4-yl)acetamide]
> 10 µM	1.51 µM	CC(C)c1nn(CC(=O)Nc2ccn3cnnc3c2)c(=O)c2cc(C3CC3)nn12 [Final Cpd 93]
> 10 µM	> 10 µM	Cc1nn(CC(=O)NCc2cccnc2)c(=O)c2cc(C3CC3)nn12 [Final Cpd 49]
> 10 µM	0.6 µM	CCCc1cc2c(=O)n(CC(=O)Nc3ccncn3)nc(C(C)C)n2n1 [Final Cpd 12]
> 10 µM	0.74 µM	CC(C)c1nn(CC(=O)N[C@H]2CNCC[C@H]2O)c(=O)c2cc(C3CC3)nn12 [Final Cpd 188]
> 10 µM	> 10 µM	CC(C)c1nn(CC(=O)Nc2cc(C(F)(F)F)ncn2)c(=O)c2cc(C3CC3)nn12 [Final Cpd 83]
> 10 µM	1.06 µM	CC(C)c1nn(CC(=O)N[C@H]2C[C@@](C)(O)C2)c(=O)c2c(F)c(C3CC3)nn12 [Final Cpd 43]
> 10 µM	< 0.12 µM	CC(C)c1nn(CC(=O)Nc2ccncn2)c(=O)c2cc(I)nn12 [Final Cpd 2, 2-(2-iodo-7-isopropyl-4-oxo-pyrazolo[1,5-d][1,2,4]triazinyl)-N-pyrimidin-4-yl-acetamide]
> 10 µM	1.16 µM	CC(C)c1nn(CC(=O)N[C@@H]2CCCN(CC(F)(F)F)C2)c(=O)c2cc(C3CC3)nn12 [Final Cpd 189, (R)-2-(2-cyclopropyl-7-isopropyl-4-oxopyrazolo[1,5-d][1,2,4]triazin-5(4H)-yl)-N-(1-(2,2,2-trifluoroethyl)piperidin-3-yl)acetamide]
> 10 µM	1.23 µM	Cc1cc(NC(=O)Cn2nc(C(C)C)n3nc(C4CC4)cc3c2=O)nc(C)n1 [Final Cpd 137]
> 10 µM	1.1 µM	Cc1cc2c(=O)n(CC(=O)Nc3ccncn3)nc(C(C)C)n2n1 [Final Cpd 17]
> 10 µM	0.85 µM	Cc1ncccc1NC(=O)Cn1nc(C(C)C)n2nc(C3CC3)cc2c1=O [Final Cpd 113]
